Results reported in ChEMBL document CHEMBL1201862, “PubChem BioAssay data set” (2004).
Calls of active or inactive are those of the source.

Legend:
[1] = biological target: Lysine-specific demethylase 4C (Homo sapiens, UniProt Q9H3R0); assay: GASC-1 (JMJD2C) histone demethylase inhibitors, dose response, biochemical, DELFIA europium, cherry-picked samples (AID 488835); type: functional
[2] = biological target: DNA damage-inducible transcript 3 protein (Mus musculus, UniProt P35639); type: functional, Cricetulus griseus
DNA damage-inducible transcript 3 protein, sequence (P35639 whole entry): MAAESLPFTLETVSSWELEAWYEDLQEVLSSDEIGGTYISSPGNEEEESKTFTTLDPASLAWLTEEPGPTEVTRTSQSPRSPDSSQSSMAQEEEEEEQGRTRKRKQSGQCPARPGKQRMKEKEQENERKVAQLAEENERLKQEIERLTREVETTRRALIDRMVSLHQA

[3] = biological target: T1, X-box-binding protein 1 (Homo sapiens, UniProt P17861); type: functional, Cricetulus griseus;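 note: confirmatory dose-response counter-screen serving a CHOP assay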
T1 sequence (P17861 whole entry): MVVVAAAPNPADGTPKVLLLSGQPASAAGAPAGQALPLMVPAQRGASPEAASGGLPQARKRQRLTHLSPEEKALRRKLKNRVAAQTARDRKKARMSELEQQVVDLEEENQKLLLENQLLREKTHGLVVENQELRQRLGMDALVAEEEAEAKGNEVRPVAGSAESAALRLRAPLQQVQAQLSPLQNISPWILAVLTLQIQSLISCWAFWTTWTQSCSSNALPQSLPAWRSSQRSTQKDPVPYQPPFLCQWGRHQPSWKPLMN

[4] = test system: Streptococcus sp. 'group A'; assay: growth inhibition of control SK(-) GAS strain, dose response, counter-screen for streptokinase expression inhibitor project, luminescence, kanamycin, BacTiterGlo, confirmation (AID 1900); type: functional, organism-based
[5] = test system: Streptococcus; assay: Group A Streptococcus viability loss, dose response, counter-screen for streptokinase expression inhibitor project, luminescence, BacTiterGlo (AID 1915); type: functional, organism-based;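 note: potency for reduction of bacterial viability or growth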
[6] = biological target: T2, Streptokinase A (Streptococcus pyogenes serotype M1, UniProt P10520); assay: S. pyogenes streptokinase expression inhibitors, potency, dose response, plasminogen activation absorbance, OD405 (AID 1914); type: functional, Streptococcus pyogenes M1 GAS;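 note: secreted streptokinase activity via plasminogen activation per viability signal from cell pellet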
T2 sequence (P10520 whole entry): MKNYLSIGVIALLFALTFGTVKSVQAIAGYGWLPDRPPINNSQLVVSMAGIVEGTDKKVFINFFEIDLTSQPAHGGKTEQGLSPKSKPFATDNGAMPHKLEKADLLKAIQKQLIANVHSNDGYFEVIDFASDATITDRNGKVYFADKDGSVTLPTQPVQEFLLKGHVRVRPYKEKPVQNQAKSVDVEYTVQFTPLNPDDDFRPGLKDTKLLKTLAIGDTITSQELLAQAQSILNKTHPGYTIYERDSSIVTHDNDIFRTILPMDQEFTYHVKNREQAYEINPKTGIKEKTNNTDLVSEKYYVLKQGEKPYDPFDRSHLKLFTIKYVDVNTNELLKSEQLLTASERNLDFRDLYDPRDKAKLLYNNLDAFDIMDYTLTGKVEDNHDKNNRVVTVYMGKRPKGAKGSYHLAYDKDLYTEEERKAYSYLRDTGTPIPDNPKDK

[7] = test system: HEK293; assay: cells; details: Homo sapiens
[8] = biological target: Genome polyprotein (dengue virus type 2, UniProt P29990); assay: Dengue-2 NS5 methyltransferase inhibitors, primary screen, biochemical, confirmation dose response (AID 588689); type: functional
Genome polyprotein, sequence (P29990 2492-3391 limits assumed): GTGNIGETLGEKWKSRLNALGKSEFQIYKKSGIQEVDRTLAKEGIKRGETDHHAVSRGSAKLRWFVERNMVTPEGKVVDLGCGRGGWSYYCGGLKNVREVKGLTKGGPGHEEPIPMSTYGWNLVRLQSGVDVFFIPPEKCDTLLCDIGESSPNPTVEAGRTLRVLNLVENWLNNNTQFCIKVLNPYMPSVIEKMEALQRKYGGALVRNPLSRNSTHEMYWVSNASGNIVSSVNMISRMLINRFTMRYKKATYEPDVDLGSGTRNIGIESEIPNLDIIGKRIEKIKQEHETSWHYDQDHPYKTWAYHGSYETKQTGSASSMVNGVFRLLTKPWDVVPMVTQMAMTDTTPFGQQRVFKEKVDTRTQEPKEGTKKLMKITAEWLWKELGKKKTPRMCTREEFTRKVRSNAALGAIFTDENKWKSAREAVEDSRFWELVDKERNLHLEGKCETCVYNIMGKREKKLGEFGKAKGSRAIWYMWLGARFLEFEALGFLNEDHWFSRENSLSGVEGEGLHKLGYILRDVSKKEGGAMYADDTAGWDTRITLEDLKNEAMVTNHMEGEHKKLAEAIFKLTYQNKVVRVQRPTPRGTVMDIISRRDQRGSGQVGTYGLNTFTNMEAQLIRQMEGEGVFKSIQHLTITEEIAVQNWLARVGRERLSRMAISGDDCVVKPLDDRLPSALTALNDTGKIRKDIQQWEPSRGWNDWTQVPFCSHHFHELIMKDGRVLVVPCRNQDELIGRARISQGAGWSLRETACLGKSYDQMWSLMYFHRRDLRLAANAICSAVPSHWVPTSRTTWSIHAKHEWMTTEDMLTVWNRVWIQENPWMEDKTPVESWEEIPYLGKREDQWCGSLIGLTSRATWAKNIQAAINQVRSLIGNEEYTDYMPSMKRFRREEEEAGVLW

[9] = test system: HEK293; assay: cells; details: Homo sapiens; remark: listed apart in the source
[10] = biological target: Heat shock protein HSP 90-alpha (Homo sapiens, UniProt P07900); type: functional, organism-based
[11] = biological target: T3, Alkaline phosphatase, tissue-nonspecific isozyme (Homo sapiens, UniProt P05186); assay: TNAP enzyme activators, dose response, selectivity assay for human IAP activator project, biochemical, TNAP isozyme, human IAP uHTS hits (AID 488886); type: functional;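 note: potency of compounds raising TNAP activity as a selectivity check on IAP activators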
T3 sequence (P05186 whole entry): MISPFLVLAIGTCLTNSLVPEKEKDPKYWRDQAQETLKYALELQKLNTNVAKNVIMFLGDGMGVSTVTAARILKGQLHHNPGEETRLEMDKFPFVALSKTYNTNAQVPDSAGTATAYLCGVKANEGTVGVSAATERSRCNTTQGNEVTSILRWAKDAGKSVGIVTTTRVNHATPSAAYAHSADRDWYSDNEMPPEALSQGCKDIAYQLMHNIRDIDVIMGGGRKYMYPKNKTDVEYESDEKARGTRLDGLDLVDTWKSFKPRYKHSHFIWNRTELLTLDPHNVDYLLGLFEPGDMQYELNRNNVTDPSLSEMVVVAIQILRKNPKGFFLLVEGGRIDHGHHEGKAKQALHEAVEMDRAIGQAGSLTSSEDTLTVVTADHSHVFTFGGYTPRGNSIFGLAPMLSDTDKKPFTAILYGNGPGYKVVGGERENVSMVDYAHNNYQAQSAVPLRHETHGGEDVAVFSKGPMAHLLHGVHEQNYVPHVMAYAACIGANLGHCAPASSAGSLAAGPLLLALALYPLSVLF

[12] = biological target: T4, Intestinal-type alkaline phosphatase (Homo sapiens, UniProt P09923); assay: human IAP activators, dose response, biochemical, luminescent, uHTS hits, set 2 (AID 488817); type: functional;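 note: potency of activators that raise enzyme activity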
T4 sequence (P09923 whole entry): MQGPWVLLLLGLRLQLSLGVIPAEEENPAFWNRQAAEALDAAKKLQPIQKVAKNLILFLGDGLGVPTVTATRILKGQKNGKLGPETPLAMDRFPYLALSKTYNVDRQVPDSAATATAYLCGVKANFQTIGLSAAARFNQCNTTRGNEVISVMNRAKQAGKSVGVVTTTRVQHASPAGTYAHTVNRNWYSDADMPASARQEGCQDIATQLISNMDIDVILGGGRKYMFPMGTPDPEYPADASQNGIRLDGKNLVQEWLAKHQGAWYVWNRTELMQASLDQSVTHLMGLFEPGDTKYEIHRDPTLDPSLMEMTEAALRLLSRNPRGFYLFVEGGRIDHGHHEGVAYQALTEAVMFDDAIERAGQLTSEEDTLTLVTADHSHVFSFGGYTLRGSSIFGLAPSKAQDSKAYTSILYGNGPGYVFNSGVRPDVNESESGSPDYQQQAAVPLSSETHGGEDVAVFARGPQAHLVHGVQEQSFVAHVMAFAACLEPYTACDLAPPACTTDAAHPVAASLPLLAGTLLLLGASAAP

[13] = biological target: Intestinal-type alkaline phosphatase (Mus musculus, UniProt P24822); assay: PubChem AID 488875; type: functional
Intestinal-type alkaline phosphatase (Mus musculus, UniProt P24822), sequence (P24822 whole entry): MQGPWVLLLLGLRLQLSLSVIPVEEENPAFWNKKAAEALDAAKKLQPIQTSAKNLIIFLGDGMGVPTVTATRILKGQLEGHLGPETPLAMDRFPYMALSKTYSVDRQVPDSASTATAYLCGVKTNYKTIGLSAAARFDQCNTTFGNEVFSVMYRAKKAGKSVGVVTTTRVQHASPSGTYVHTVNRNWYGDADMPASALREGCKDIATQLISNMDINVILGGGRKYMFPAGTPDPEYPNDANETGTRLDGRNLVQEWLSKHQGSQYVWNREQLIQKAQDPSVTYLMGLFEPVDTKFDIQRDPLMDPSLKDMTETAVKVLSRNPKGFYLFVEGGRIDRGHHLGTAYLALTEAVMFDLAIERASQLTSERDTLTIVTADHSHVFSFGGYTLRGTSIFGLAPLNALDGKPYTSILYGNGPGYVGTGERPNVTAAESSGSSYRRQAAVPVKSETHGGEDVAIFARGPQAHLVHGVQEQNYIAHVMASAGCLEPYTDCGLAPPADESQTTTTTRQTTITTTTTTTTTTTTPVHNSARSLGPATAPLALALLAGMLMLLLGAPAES

[14] = biological target: T4, Intestinal-type alkaline phosphatase; assay: human intestinal alkaline phosphatase activators, dose response, biochemical, luminescence, uHTS hits (AID 463120); type: functional
[15] = biological target: T5, Dual specificity protein phosphatase 3 (Homo sapiens, UniProt P51452); assay: VHR1 phosphatase inhibitors, primary screen, biochemical, absorbance, uHTS (AID 1654)
T5 sequence (P51452 whole entry): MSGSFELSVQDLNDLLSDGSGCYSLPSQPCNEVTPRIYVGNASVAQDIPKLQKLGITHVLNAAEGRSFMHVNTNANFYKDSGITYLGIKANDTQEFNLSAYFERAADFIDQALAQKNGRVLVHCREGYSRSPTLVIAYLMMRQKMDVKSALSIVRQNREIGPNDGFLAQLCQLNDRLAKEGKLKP

[16] = biological target: T6, Polyadenylate-binding protein 1 (Homo sapiens, UniProt P11940); assay: PABP1 MLLE–PAM2 interaction inhibitors, dose response, miRNA deadenylation inhibitor project, biochemical, fluorescence polarization, Cy5-PAM2 peptide, secondary (AID 602260); type: functional; details: read-out: IC50_Mean
T6 sequence (P11940 whole entry): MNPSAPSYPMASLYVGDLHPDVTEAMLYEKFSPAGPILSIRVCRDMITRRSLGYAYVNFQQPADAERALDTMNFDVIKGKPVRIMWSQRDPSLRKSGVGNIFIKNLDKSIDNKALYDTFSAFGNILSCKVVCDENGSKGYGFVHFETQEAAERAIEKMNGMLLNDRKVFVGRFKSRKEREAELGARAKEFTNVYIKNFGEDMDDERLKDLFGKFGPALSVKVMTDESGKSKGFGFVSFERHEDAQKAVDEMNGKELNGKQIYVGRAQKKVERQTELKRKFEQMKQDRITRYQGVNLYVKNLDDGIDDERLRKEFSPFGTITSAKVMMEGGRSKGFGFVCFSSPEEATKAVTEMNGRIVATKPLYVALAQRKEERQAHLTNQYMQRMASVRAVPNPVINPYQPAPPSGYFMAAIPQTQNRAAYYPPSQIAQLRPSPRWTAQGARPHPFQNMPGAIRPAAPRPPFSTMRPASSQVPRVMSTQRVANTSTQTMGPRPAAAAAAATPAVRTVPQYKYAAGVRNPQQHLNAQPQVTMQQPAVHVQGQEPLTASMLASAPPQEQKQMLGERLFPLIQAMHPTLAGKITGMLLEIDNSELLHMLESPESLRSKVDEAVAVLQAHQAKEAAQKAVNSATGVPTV

[17] = biological target: T6, Polyadenylate-binding protein 1; assay: PABP1 MLLE–PAM2 binding inhibitor potency, dose response, biochemical, fluorescence polarization, FITC-PAM2 peptide (AID 602259); type: functional; details: read-out: IC50_Mean
[18] = biological target: T7, Dual specificity protein phosphatase 6 (Rattus norvegicus, UniProt Q64346); assay: MKP-3 phosphatase inhibitors, primary screen, biochemical, rat enzyme, in vitro (AID 425)
T7 sequence (Q64346 whole entry): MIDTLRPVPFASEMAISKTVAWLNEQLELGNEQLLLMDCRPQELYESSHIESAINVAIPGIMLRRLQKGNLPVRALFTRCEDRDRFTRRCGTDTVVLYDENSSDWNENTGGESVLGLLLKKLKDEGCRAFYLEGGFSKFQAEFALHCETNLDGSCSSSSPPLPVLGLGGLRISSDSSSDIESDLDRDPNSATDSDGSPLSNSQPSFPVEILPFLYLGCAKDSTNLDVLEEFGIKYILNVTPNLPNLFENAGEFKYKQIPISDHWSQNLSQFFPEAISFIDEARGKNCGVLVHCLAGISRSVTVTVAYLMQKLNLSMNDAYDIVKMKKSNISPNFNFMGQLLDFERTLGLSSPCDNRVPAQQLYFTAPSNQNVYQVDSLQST

[19] = biological target: T5, Dual specificity protein phosphatase 3; assay: VHR1 phosphatase inhibitors, biochemical (AID 1878)
[20] = biological target: Cytochrome P450 2D6 (Homo sapiens, UniProt P10635);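 note: CYP2D6 member of a cytochrome P450 panel assay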
Cytochrome P450 2D6, sequence (P10635 whole entry): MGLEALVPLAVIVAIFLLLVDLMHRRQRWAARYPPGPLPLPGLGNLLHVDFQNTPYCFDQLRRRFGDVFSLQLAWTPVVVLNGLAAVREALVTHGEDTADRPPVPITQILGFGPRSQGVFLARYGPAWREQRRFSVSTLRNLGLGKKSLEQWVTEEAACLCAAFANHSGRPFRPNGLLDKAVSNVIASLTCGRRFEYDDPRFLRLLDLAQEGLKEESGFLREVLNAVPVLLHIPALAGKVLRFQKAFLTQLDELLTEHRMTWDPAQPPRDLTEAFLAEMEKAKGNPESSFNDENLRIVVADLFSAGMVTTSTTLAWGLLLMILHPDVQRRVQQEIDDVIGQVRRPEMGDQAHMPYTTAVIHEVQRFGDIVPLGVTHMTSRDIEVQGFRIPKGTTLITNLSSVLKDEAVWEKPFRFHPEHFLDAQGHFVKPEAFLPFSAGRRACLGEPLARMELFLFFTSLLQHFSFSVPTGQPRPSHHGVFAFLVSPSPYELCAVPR

[21] = biological target: SUMO-activating enzyme (Homo sapiens, UniProt Q9UBT2); assay: SUMOylation inhibitor hit validation, confirmation, SUMOylation inhibitor project, biochemical, AlphaScreen (AID 2018); type: functional

Lysine-specific demethylase 4C, sequence (Q9H3R0 whole entry): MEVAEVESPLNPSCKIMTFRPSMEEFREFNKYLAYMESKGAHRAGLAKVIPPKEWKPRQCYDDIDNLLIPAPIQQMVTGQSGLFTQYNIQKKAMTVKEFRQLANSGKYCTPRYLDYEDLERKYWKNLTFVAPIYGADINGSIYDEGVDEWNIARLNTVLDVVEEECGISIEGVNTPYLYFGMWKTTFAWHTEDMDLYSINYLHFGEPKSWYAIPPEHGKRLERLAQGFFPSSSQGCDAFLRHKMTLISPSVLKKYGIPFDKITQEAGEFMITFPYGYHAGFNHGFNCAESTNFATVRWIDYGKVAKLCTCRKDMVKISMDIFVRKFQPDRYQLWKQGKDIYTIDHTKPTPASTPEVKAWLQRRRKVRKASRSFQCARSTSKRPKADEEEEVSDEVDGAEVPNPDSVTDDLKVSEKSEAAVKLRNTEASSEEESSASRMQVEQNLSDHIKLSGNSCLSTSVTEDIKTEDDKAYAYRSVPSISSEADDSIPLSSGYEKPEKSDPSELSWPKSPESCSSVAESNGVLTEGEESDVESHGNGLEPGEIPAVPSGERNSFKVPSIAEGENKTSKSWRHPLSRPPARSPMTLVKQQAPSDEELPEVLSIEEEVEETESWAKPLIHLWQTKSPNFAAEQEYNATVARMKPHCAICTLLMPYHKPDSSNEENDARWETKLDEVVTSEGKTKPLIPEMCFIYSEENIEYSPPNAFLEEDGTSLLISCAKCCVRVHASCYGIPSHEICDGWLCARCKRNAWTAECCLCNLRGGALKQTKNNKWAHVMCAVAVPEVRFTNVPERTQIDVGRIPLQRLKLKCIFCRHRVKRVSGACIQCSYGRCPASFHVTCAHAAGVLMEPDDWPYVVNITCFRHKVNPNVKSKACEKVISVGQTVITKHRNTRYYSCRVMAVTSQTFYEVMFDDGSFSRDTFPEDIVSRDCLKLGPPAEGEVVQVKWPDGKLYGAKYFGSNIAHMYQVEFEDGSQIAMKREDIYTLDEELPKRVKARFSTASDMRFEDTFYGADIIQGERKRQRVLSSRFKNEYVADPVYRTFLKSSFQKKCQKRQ

Q: Which AC50 [1] does the source give for `CN1C(=O)C(Cc2ccc(OCc3ccccc3)cc2)C(=O)N(C)C1=O` here?
A: 9.21 µM (active)

Q: Which “Absolute IC50 (CHOP)” value [2] does the source give for `CCCCC1=CC2=C(c3ccco3)C(=O)C(C)(OC(=O)c3ccc(OC)cc3)C(=O)C2=CN1Cc1ccccc1` (configuration not stated) here?
A: 10 µM

Q: What about the “Absolute IC50 (XBP1)” value [3] of the same compound?
A: 10 µM

Q: `CC(C)CN(C(=O)c1ccc(N2CCCC2=O)cc1)c1c(N)n(Cc2ccccc2)c(=O)[nH]c1=O` was tested. Which AC50 [1] did it give?
A: > 60 µM (inactive)

Q: With `COC(=O)[C@@H]1[C@@H](C#N)C2(c3ccccc3-c3ccccc32)N(c2ccc(Cl)cc2)N1C#N` as the compound, how does the EC50 [4] read?
A: 5.91 µM (active)

Q: And the EC50 [5]?
A: 19 µM (active)

Q: What about the EC50 [6] of the same compound?
A: 63.1 µM (active)

Q: And the EC50 [7]?
A: > 59.6 µM (inactive)

Q: What about the IC50 [8] of the same compound?
A: 92.4 µM (active)

Q: What about the EC50 [9] of the same compound?
A: > 59.6 µM (inactive)

Q: And the AC50 [10]?
A: 1.7 µM (active)

Q: With `Cn1c(/C(C#N)=C(\O)c2ccc(Br)s2)nc2ccccc21` as the compound, how does the EC50 [11] read?
A: 45 µM (active)

Q: And the EC50 [12]?
A: 60 µM (active)

Q: What about the EC50 [13] of the same compound?
A: > 100 µM (inactive)

Q: And the EC50 [14]?
A: 77 µM (active)

Q: Which IC50 [15] does the source give for `S=C(NCCCN1CCOCC1)NCCCN1CCOCC1` here?
A: 2.61 µM (active)

Q: And the IC50 [16]?
A: > 66 µM (inactive)

Q: What about the IC50 [17] of the same compound?
A: > 66 µM (inactive)

Q: What about the IC50 [18] of the same compound?
A: > 158 µM (not active)

Q: What about the IC50 [19] of the same compound?
A: 6.17 µM (active)

Q: `CC1CCN(C(=O)CSc2nc3cccnc3n2C)CC1` was tested. Which AC50 [20] did it give?
A: inconclusive

Q: For `Nc1c(C(=O)NCc2ccco2)c2nc3ccccc3nc2n1CCc1ccccc1`, which IC50 [21] is on record?
A: 1.87 µM (active)
